Test results reported in patent US4579947A, “Substituted phenylalkylpiperazinylpropyl (ureas or thioureas) useful for treatment of immunological, inflammatory and allergic disorder” (Boehringer Ingelheim Pharmaceuticals, Inc., priority 1984, dated 1986).

Assays:
[1] = tested on: human leukocytes (basophils); assay: Inhibition of human leukocyte (basophil) histamine release in vitro (rabbit anti-human IgE); type: cell-based; conditions: Leukocyte, 1 h, Table A, 60 minutes at 37° C., Int. = interference with test procedure, read-out: Inhibition IC50 (histamine release from human leukocytes (basophils))
Procedure: Separation of Leukocytes: A modification of the method of L. Lichtenstein and A. Osler, J.Exp.Med. 120, 507 (1964) was used. Heparinized human blood (80-100 ml) is mixed with 20 ml of saline (0.2%) containing 0.6 gm of dextrose and 1.2 gm dextran in propylene centrifuge tubes. The mixture is kept at ambient temperature for 60-90 minutes to allow the separation of erythrocytes from the platelet-leukocyte-rich supernate. The supernate is removed and centrifuged for 8 minutes at 110×g in cold. The leukocyte pellet is washed 2× with Tris buffer and finally suspended in 150-180 ml Tris-ACM buffer at 1-2×10^6 cells/ml. 2. Reaction Mixture: The reaction is carried out in 12×75 mm plastic tubes at a total volume of 1.25 ml. The reaction medium includes 0.05 ml rabbit anti-human IgE (the antigen), 0.2 ml of the test compound in water at concentrations ranging from 10-1000 μM, and 1.0 ml of the leukocyte suspension. The reaction mixture is incubated in a 37° C. shaking water bath for 60 minutes. Upon completion of the reaction, the tubes are centrifuged and the supernatants collected. The protein is removed from the supernatants by precipitation with 0.2 ml of 8% perchloric acid. 3. Histamine Assay: Histamine release is measured by the automated fluorometric method of W. Siraganian and W. Hook in Chapter 102 of the Manual of Clinical Immunology, 2nd Edition, Edited by R. Rose and H. Friedman, Published by the American Society for Microbiology, Washington, D.C. 1980. Percent inhibition is calculated as follows: [formula] The concentration which causes a 50 percent inhibition (IC50) of histamine release is interpolated from a plot of percent inhibition versus logarithm of drug concentration.

[2] = tested on: isolated guinea pig ileum; assay: Antagonism of histamine-induced contraction of isolated guinea pig ileum; type: cell-based; conditions: Cavia porcellus; Table C; histamine final concentration 0.2 μg/ml; read-out: Inhibition IC50 (histamine-induced contraction of isolated guinea pig ileum)
Procedure: The antagonism of the effects of histamine on the contraction of isolated guinea pig ileum by the compounds of formula I can be determined by the procedure of G. Possanza, A. Bauen, and P. Stewart, Int. Arch. Allergy Appl. Immunol., 49, 289 (1975). The degree of inhibition is determined as the difference between the contraction caused by histamine (final concentration 0.2 μg/ml) alone and that seen in the presence of both histamine and the test compound. The inhibitory activity of the test compound is expressed as that concentration of the compound which causes a 50% reduction of the contractile response (IC50).

CNS = assay: Standard mouse neuropharmacological profile; type: in vivo
Description: With the exception of the compounds wherein R4 is a lower alkyl group from 7 to 12 carbon atoms, the compounds of formula I inhibit in vitro the histamine-induced contraction of isolated guinea pig ileum and are useful in warm-blooded animals for antagonizing the action of histamine at the histamine (H1) receptor. Accordingly, the compounds of formula I can be employed as antihistamine agents for the treatment of allergic disorders, for example allergic rhinitis, vasomotor rhinitis, allergic conjunctivitis, hay fever, urticaria, and food allergies. Certain compounds of formula I lack the CNS side effects, such as sedation, normally associated with antihistamine therapy.

[3] = tested on: rat peritoneal mast cells; assay: Inhibition of rat peritoneal mast cell histamine release; type: cell-based; conditions: Table B; in vitro, sheep anti-rat IgE or ovalbumin, 60 minutes at 37° C.; Int. = interference with test procedure
Procedure: Harvest of Peritoneal Mast Cells: After the rats are sacrificed with ether, 20 ml of Minimum Essential Medium (MEM) containing 20 units/ml heparin is injected into the peritoneum. The abdomen is massaged for one minute and the lavage fluid collected. The peritoneal cells are centrifuged at 1800 rpm for 8 minutes in cold. After two washes with Tris A buffer, the cells are resuspended in Tris ACM buffer at 2-33 10^6 cells/ml. 2. Reaction Mixture: The reaction is carried out in 12×75 mm plastic tubes at a total volume of 1.25 ml. The reaction mixture includes 0.5 ml (10-1000 μg) sheep anti-rat IgE or ovalbumin, 0.2 ml of the test compound in water at concentrations ranging from 10-1000 μM, 0.5 ml phosphatidylserine solution (20-60 μg to each tube), and 0.5 ml of cell suspension. The reaction mixture is incubated in a 37° C. shaking water bath for 60 minutes. Upon completion of the reaction, the tubes are centrifuged and the supernatants collected. The protein is removed from the supernatants by precipitation with 0.2 ml of 8% perchloric acid. 3. Histamine Assay: Histamine release is measured by the automated fluorometric method of Siraganian, supra. The concentration which causes a 50% inhibition (IC50) of histamine release is computed as in Part A.

SMILES	IC50 [1] [µM]	IC50 [2] [µM]	CNS effects (CNS)	Inhibition IC50 (histamine release from rat peritoneal mast cells) [3]
CCOC(=O)c1ccc(NC(=O)NCCCN2CCN(Cc3ccc(Cl)cc3)CC2)cc1.Cl [Example 13, 1-{3-[4-(4-Chlorobenzyl)piperazin-1-yl]propyl}-3-(4-ethoxycarbonylphenyl)urea hydrochloride]	190	0.11	not to exert significant CNS effects	–
Cl.O=C(NCCCN1CCN(Cc2ccc(Cl)cc2)CC1)Nc1ccc(C(=O)O)cc1 [Example 14, 1-{3-[4-(4-Chlorobenzyl)piperazin-1-yl]propyl}-3-(4-carboxyphenyl)urea hydrochloride]	> 1000	0.21	not to exert significant CNS effects	–
CCCCCCNC(=O)NCCCN1CCN(CCCc2ccc(Cl)cc2)CC1.Cl.Cl [Example 25, 1-{3-[4-[3-(4-Chlorophenyl)propyl]piperazin-1-yl]propyl}-3-n-hexylurea dihydrochloride]	10	0.13	–	Int.
